Key:
[1] = tested on: MCF-7 cells; experiment: Breast cancer cell viability assay (MCF7, CellTiter-Glo); conditions: for IC50: read-out: MCF7 Viability Assay: IC50, 5 days' compound exposure; for MCF7 Viability Assay: % Viability relative to Fulvestrant: 5 days' compound exposure
[2] = molecular target: ER-α (Homo sapiens (Human), UniProt P03372); experiment: Breast cancer cell ER-α In-Cell Western assay (SP1); assay type: cell-based; conditions: MCF7 cells, 4 hours post compound addition
Method: MCF7 cells were trypsinized and washed twice in Phenol Red Free RPMI containing 5% Charcoal Dextran Stripped serum with 20 mM HEPES and NEAA, then adjusted to a concentration of 200,000 cells per mL with the same medium. Next, 16 μL of the cell suspension (3200 cells) was added to each well of a poly-D-lysine coated 384 well plate, and the cells were incubated at 37° C. over 4 days to allow the cells to adhere and grow. […] At 4 hours post compound addition, the cells were fixed by adding 16 μL of 30% formalin to the 32 μL of cells and compound (10% formalin final concentration) for 20 minutes. Cells were then washed twice with PBS Tween 0.1% and then permeabilized in PBS 0.1% Triton (50 μl/well) for additional 15 minutes. The PBS 0.1% triton was decanted, and the cells were washed: LI-COR blocking buffer (50 μL/well) was added, the plate was spun at 3000 rpm, and then the blocking buffer was decanted. Additional LI-COR blocking buffer (50 μL/well) was added, and the cells were incubated overnight at 4° C. The blocking buffer was decanted, and the cells were incubated overnight at 4° C. with SP1 (Thermo Scientific) anti-ER rabbit monoclonal antibody diluted 1:1000 in LI-COR blocking buffer/0.1% Tween-20. Wells which were treated with blocking buffer with Tween but no antibody were used as a background control. Wells were washed twice with PBS Tween 0.1% to remove free SP1 antibodies, and the cells were incubated at room temp for 60-90 minutes in LI-COR goat anti-rabbit IRDye™ 800CW (1:1000) and DRAQ5 DNA dye (1:10000 of 5 mM stock solution) diluted in LI-COR blocking buffer containing 0.1% Tween-20 and 0.01% SDS. Cells were then washed with 0.1% Tween-20/PBS three times. Plates were scanned on a LI-COR Odyssey infrared imaging system. Integrated intensities in the 800 nm channel and 700 nm channel were measured to determine levels of ER-α and DNA respectively. Percent ER levels were determined as follows: (Integrated intensity 800 nm sample/integrated intensity 700 nm sample)/(Integrated intensity 800 nm untreated cells/integrated intensity 700 nm untreated cells)×100=% ER-α levels.

[3] = tested on: tamoxifen resistant MCF-7 tumors; experiment: Breast cancer model: xenograft assay (MCF-7 derivative, tamoxifen resistant); assay type: in vivo; conditions: female nu/nu mice
Method: Female nu/nu mice (with supplemental 17-β Estradiol pellets; 0.72 mg; 60 day slow release) bearing MCF-7 tumors (mean tumor volume 200 mm^3) were treated with Tamoxifen (citrate) by oral gavage. Tumor volume (length×width^2/2) and body weight were monitored twice weekly. Following a significant anti-tumor response in which tumor volume remained static, evident tumor growth was first observed at approximately 100 days of treatment. At 120 days of treatment, tamoxifen dose was increased. Rapidly growing tumors were deemed tamoxifen resistant and selected for in vivo passage into new host animals. Tumor Fragments (˜100 mm^3/animal) from the tamoxifen resistant tumors were subcutaneously implanted into the right flank of female nu/nu mice (with 17-β Estradiol pellets (0.72 mg; 60 day slow release)). Passaged tumors were maintained under constant Tamoxifen selection, and Tumor volume (length×width^2/2) was monitored weekly. When tumor volume reached ˜150-250 mm^3, animals were randomized into treatment groups (mean tumor volume 200 mm^3) and tamoxifen treatment was terminated (except for a tamoxifen control arm). Animals were treated with Vehicle or Compound daily for 4 weeks. Tumor volume and body weight were monitored twice weekly for the duration of the study. At the conclusion of the treatment period; plasma and tumor samples were taken for pharmacokinetic and pharmacodynamic analyses, respectively.

Chain of ER-α (P03372 whole entry): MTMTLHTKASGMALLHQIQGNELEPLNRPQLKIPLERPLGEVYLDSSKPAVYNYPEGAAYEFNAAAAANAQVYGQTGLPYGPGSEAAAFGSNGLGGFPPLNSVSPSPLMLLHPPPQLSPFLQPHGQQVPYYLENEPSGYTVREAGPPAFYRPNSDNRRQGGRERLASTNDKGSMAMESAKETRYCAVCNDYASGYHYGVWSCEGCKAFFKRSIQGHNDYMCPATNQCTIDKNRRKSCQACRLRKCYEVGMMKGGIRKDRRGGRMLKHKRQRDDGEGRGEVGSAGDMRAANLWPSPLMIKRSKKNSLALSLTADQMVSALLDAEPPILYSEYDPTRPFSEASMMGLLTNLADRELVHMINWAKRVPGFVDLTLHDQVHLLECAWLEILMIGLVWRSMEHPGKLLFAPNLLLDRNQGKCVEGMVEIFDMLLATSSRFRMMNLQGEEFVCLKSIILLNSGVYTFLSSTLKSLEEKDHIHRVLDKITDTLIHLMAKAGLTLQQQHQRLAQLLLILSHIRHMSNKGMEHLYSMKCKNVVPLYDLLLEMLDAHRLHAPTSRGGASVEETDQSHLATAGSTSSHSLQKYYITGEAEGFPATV

CC1=C(c2cccc(O)c2)C(c2ccc(OCCN3CC(CF)C3)cc2)Oc2ccc(O)cc21 (racemic) [Example 1, (±)-2-(4-(2-(3-(Fluoromethyl)azetidin-1-yl)ethoxy)phenyl)-3-(3-hydroxyphenyl)-4-methyl-2H-chromen-6-ol]
IC50 [1]: 0.21 nM

CC1=C(c2cccc(O)c2)C(c2ccc(OCCN3CC(C)C3)cc2)Oc2ccc(O)cc21 (racemic) [Example 4, 3-(3-Hydroxyphenyl)-4-methyl-2-(4-(2-(3-methylazetidin-1-yl)ethoxy)phenyl)-2H-chromen-6-ol]
ER-α In-Cell Western Assay (SP1): % ER-α remaining relative to Fulvestrant [2]: 14%
MCF7 Viability Assay: % Viability relative to Fulvestrant [1]: 13%

CC1=C(c2cccc(O)c2)C(c2ccc(OCCN3CCC3)cc2)Oc2ccc(O)cc21 (centres unmarked) [2-(4-(2-(azetidin-1-yl)ethoxy)phenyl)-3-(3-hydroxyphenyl)-4-methyl-2H-chromen-6-ol]
ER-α In-Cell Western Assay (SP1): % ER-α remaining relative to Fulvestrant [2]: 24%
MCF7 Viability Assay: % Viability relative to Fulvestrant [1]: 25%

CC1=C(c2cccc(O)c2)C(c2ccc(OC[C@H](C)N3CC[C@@H](F)C3)cc2)Oc2ccc(O)cc21 (stereo partly drawn) [2-(4-((S)-2-((R)-3-fluoropyrrolidin-1-yl)propoxy)phenyl)-3-(3-hydroxyphenyl)-4-methyl-2H-chromen-6-ol]
ER-α In-Cell Western Assay (SP1): % ER-α remaining relative to Fulvestrant [2]: 8%
MCF7 Viability Assay: % Viability relative to Fulvestrant [1]: 16%

CC1=C(c2cccc(O)c2)C(c2ccc(OC[C@H](C)N3CCC3)cc2)Oc2ccc(O)cc21 (stereo partly drawn) [2-(4-((S)-2-(azetidin-1-yl)propoxy)phenyl)-3-(3-hydroxyphenyl)-4-methyl-2H-chromen-6-ol]
ER-α In-Cell Western Assay (SP1): % ER-α remaining relative to Fulvestrant [2]: 33%
MCF7 Viability Assay: % Viability relative to Fulvestrant [1]: 30%

CC1=C(c2cccc(O)c2)[C@H](c2ccc(OC[C@H](C)N3CC[C@@H](C)C3)cc2)Oc2ccc(O)cc21 [(S)-3-(3-Hydroxyphenyl)-4-methyl-2-(4-((S)-2-((R)-3-methylpyrrolidin-1-yl)propoxy)phenyl)-2H-chromen-6-ol]
IC50 [2]: 0.11 nM
Number of Tumors Smaller at t = 27 days than at Start of study (t = 0 days) ([3]; 10 mpk oral dose each day): 0/8
Number of Tumors Smaller at t = 27 days than at Start of study (t = 0 days) ([3]; 30 mpk oral dose each day): 1/8
Number of Tumors Smaller at t = 27 days than at Start of study (t = 0 days) ([3]; 100 mpk oral dose each day): 1/8
MCF7 Viability Assay: % Viability relative to Fulvestrant [1]: 8%
IC50 [1]: 0.13 nM

CC1=C(c2cccc(O)c2)[C@@H](c2ccc(OCCN3CC(CF)C3)cc2)Oc2ccc(O)cc21 [Example 2, (R)-2-(4-(2-(3-(Fluoromethyl)azetidin-1-yl)ethoxy)phenyl)-3-(3-hydroxyphenyl)-4-methyl-2H-chromen-6-ol]
IC50 [1]: 4.3 nM

CC1=C(c2cccc(O)c2)[C@H](c2ccc(OCCN3CC(CF)C3)cc2)Oc2ccc(O)cc21 [Example 3, (S)-2-(4-(2-(3-(fluoromethyl)azetidin-1-yl)ethoxy)phenyl)-3-(3-hydroxyphenyl)-4-methyl-2H-chromen-6-ol]
Number of Tumors Smaller at t = 27 days than at Start of study (t = 0 days) ([3]; 10 mpk oral dose each day): 0/5
Number of Tumors Smaller at t = 27 days than at Start of study (t = 0 days) ([3]; 30 mpk oral dose each day): 2/8
Number of Tumors Smaller at t = 27 days than at Start of study (t = 0 days) ([3]; 100 mpk oral dose each day): 5/8
IC50 [1]: 0.07 nM

Reference: patent publication US10227334B2, “Estrogen receptor modulators and uses thereof” (Genentech, Inc., priority 2013, dated 2019)
